Measured values published in patent US20030224978A1, “Compounds and methods for modulating apoptosis” (McGill University, priority 1996, published 2003).

Target: T1, N-cadherin (Gallus gallus, UniProt P10288)
T1 construct: expressed in transfected cells; host or cells: 3T3 fibroblasts
T1 sequence (P10288 165-912): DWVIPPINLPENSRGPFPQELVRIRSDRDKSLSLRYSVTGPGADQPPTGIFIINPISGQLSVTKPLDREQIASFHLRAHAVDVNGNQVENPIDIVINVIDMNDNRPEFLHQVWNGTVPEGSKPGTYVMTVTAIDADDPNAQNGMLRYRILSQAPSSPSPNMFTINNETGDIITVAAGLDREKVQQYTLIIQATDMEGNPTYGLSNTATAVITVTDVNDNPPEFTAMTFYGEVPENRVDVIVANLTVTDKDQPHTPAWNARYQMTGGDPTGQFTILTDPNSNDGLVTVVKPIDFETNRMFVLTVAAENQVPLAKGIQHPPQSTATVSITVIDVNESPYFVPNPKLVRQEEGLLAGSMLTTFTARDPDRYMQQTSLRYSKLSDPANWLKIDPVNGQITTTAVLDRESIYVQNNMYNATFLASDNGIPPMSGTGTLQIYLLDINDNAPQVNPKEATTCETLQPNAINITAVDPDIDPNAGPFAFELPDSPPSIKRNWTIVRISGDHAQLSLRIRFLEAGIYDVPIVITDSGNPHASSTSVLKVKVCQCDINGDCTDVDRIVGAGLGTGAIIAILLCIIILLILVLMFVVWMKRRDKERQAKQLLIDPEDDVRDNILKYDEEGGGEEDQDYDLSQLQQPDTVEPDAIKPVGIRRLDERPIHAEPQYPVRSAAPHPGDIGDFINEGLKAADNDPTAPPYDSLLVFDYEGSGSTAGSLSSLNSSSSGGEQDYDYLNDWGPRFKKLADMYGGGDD
Experiment: Neurite outgrowth of mouse cerebellar neurons on 3T3 cells expressing N-cadherin (Example 2)
Format: cell-based
Description: Within a representative neurite outgrowth assay, neurons may be cultured on a monolayer of cells (e.g., 3T3) that express N-cadherin. […] For example, neurons may be cultured on monolayers of 3T3 cells transfected with cDNA encoding N-cadherin essentially as described by Doherty and Walsh, Curr. Op. Neurobiol. 4:49-55, 1994; Williams et al., Neuron 13:583-594, 1994; Hall et al., Cell Adhesion and Commun. 3:441-450, 1996; Doherty and Walsh, Mol. Cell. Neurosci. 8:99-111, 1994; and Safell et al., Neuron 18:231-242, 1997. Briefly, monolayers of control 3T3 fibroblasts and 3T3 fibroblasts that express N-cadherin may be established by overnight culture of 80,000 cells in individual wells of an 8-chamber well tissue culture slide. 3000 cerebellar neurons isolated from post-natal day 3 mouse brains may be cultured for 18 hours on the various monolayers in control media (SATO/2%FCS), or media supplemented with various concentrations of the modulating agent or control peptide. The cultures may then be fixed and stained for GAP43 which specifically binds to the neurons and their neurites. The length of the longest neurite on each GAP43 positive neuron may be measured by computer assisted morphometry.
A modulating agent that modulates N-cadherin-mediated cell adhesion may inhibit or enhance such neurite outgrowth. Under the conditions described above, the presence of 500 μg/mL of a modulating agent that disrupts neural cell adhesion should result in a decrease in the mean neurite length by at least 50%, relative to the length in the absence of modulating agent or in the presence of a negative control peptide. Alternatively, the presence of 500 μg/mL of a modulating agent that enhances neural cell adhesion should result in an increase in the mean neurite length by at least 50%.
Neurons were cultured on monolayers of 3T3 cells transfected with cDNA encoding N-cadherin essentially as described by Doherty and Walsh, Curr. Op. Neurobiol. […] The length of the longest neurite on each GAP43 positive neuron was then measured by computer assisted morphometry.

| effect on neurite outgrowth on 3T3 cells expressing N-cadherin (500 μg/mL, 18 hours) | Structure (SMILES) | effect on neurite outgrowth on 3T3 cells expressing N-cadherin (50 μg/mL, dose-response study) |
| --- | --- | --- |
| completely inhibited neurite outgrowth | CC(=O)N[C@H]1CSSC[C@@H](C(N)=O)NC(=O)[C@H](C(C)C)NC(=O)[C@H](C)NC(=O)[C@H](Cc2c[nH]cn2)NC1=O [N-Ac-CHAVC-NH2, N-Ac-Cys-His-Ala-Val-Cys-NH2] | significantly inhibited neurite outgrowth |
| had no effect | CC(=O)N[C@H]1CSSC[C@@H](C(N)=O)NC(=O)[C@H](C(C)C)NC(=O)CNC(=O)[C@H](Cc2c[nH]cn2)NC1=O [N-Ac-CHGVC-NH2, reference compound] | – |
